According to patent publication US12129312B2, “Peptide compound, application thereof and composition containing same” (priority 2017, dated 2024):
Like-named read-outs stand apart in the source and are kept apart here. Numbered stars: 1 amine (or outer) side, 2 acyl side, 3 side chain; on linkers, the order of the positions; unused ones are H or OH. Square brackets hold non-standard residues; d marks the D form. Peptide text beside a SMILES is read from it. * marks the point of attachment. X11 = O=C([C@@H](Cc1ccc(O)cc1)N(CCCc1ccccc1)[*:1])[*:2]; X7 = O=C([C@@H](Cc1ccc(O)cc1)NC(=S)NCCc1ccccc1)*; Bpa = N[C@@H](Cc1ccc(C(=O)c2ccccc2)cc1)C(=O)O; Diphenylacetyl = O=C(C(c1ccccc1)c1ccccc1)*; Benzoyl(3,5-(OH)2) = O=C(c1cc(O)cc(O)c1)*; X6 = CCCN([C@@H](CC(C)C)C(=O)[*:2])[*:1]; Gly(Nα-CH2CH2CONH2) = NC(=O)CCNCC(=O)O; X5 = O=C([C@H]1c2ccccc2CCN1[*:1])[*:2]; 1Nal = N[C@@H](Cc1cccc2ccccc12)C(=O)O; 2Nal = N[C@@H](Cc1ccc2ccccc2c1)C(=O)O; dNMeY = CN[C@H](Cc1ccc(O)cc1)C(=O)O; Cyclohexylacetyl = O=C(CC1CCCCC1)*; Hydrocinnamoyl = O=C(CCc1ccccc1)*; NMeQ = CN[C@@H](CCC(N)=O)C(=O)O; Tic = O=C(O)[C@@H]1Cc2ccccc2CN1; dTic = O=C(O)[C@H]1Cc2ccccc2CN1; NMeL = CN[C@@H](CC(C)C)C(=O)O; X9 = O=C(c1ccc(O)c(O)c1O)*; NMeS = CN[C@@H](CO)C(=O)O; Thz = O=C(O)[C@@H]1CSCN1; Aze = O=C(O)[C@@H]1CCN1; X8 = O=C(c1c(O)cccc1O)*

Biological target: T1, human Chemokine like receptor 1 (Homo sapiens, UniProt Q99788)
T1 construct: host or cells: U2OS (Tango CMKLR1-bla U2OS)
T1 sequence (Q99788 1-373): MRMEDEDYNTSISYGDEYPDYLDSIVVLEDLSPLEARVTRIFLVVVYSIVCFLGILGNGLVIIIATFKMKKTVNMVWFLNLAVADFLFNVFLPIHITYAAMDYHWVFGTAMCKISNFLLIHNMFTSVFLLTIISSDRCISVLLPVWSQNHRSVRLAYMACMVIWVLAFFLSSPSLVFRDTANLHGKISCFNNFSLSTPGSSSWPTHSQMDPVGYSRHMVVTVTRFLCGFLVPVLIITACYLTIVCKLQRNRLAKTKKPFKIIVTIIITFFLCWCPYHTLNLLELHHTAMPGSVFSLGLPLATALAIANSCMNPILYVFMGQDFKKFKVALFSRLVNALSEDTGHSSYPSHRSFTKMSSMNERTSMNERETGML
Assay: Activation of Tango CMKLR1-bla U2OS cells (beta-lactamase FRET reporter)
Format: cell-based
Procedure, shortened: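 Agonist mode in Tango CMKLR1-bla U2OS cells, 10000 cells/well seeded overnight, then 10-point 3-fold compound dilutions from 10 mM DMSO stock applied for 4 h at 37 °C, 5% CO2. Beta-lactamase reporter read with CCF4-AM FRET substrate; peptide (D-Tyr)-Phe-Leu-Pro-(D-Ser)-Gln-Phe-(D-Ala)-Tic-Ser served as positive control.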

[1] = determination by the method of Effect Embodiment 1, read-out: EC50

Row | SMILES | EC50 [1] [nM] | EC50 [nM]
1 | CN[C@H](Cc1ccc(O)cc1)C(=O)N[C@@H](Cc1ccccc1)C(=O)N(C)[C@@H](CC(C)C)C(=O)N1CCC[C@H]1C(=O)N[C@H](CO)C(=O)N[C@@H](CCC(N)=O)C(=O)N[C@@H](Cc1cccc2ccccc12)C(=O)N[C@H](C)C(=O)N1Cc2ccccc2C[C@H]1C(=O)N(C)[C@@H](CO)C(=O)O [YW-162, (D-NMe-Tyr)-Phe-(NMe-Leu)-Pro-(D-Ser)-Gln-1Nal-(D-Ala)-Tic-NMeSer-OH] (H-[dNMeY]F[NMeL]P[dS]Q[1Nal][dA][Tic][NMeS]-OH) | 2.6 | 
2 | CC(C)C[C@@H](C(=O)N1CCC[C@H]1C(=O)N[C@H](CO)C(=O)N[C@@H](CCC(N)=O)C(=O)N[C@@H](Cc1ccccc1)C(=O)N[C@H](C)C(=O)N1Cc2ccccc2C[C@H]1C(=O)N[C@@H](CO)C(=O)O)N(C)C(=O)[C@H](Cc1ccccc1)NC(=O)[C@@H](Cc1ccc(O)cc1)NC(=O)CC1CCCCC1 [YW-194, (2-Cyclohexylacetyl)-(D-Tyr)-Phe-(NMe-Leu)-Pro-(D-Ser)-Gln-Phe-(D-Ala)-Tic-Ser] (Cyclohexylacetyl-[dY]F[NMeL]P[dS]QF[dA][Tic]S-OH) | 1.2 | 
3 | CN[C@H](Cc1ccc(O)cc1)C(=O)N[C@@H](Cc1ccccc1)C(=O)N(C)[C@@H](CC(C)C)C(=O)N1CSC[C@H]1C(=O)N[C@H](CO)C(=O)N[C@@H](CCC(N)=O)C(=O)N[C@@H](Cc1cccc2ccccc12)C(=O)N[C@H](C)C(=O)N1Cc2ccccc2C[C@H]1C(=O)N(C)[C@@H](CO)C(=O)O [YW-142, (D-NMe-Tyr)-Phe-(NMe-Leu)-Thz-(D-Ser)-Gln-1Nal-(D-Ala)-Tic-(NMe-Ser)-OH] (H-[dNMeY]F[NMeL][Thz][dS]Q[1Nal][dA][Tic][NMeS]-OH; N-terminus assumed) | 0.9 | 
4 | CC(C)C[C@H](NC(=O)[C@H](Cc1ccccc1)NC(=O)[C@H](N)Cc1ccc(O)cc1)C(=O)N1CCC[C@H]1C(=O)N[C@H](CO)C(=O)N(C)[C@@H](CCC(N)=O)C(=O)N[C@@H](Cc1ccccc1)C(=O)N[C@H](C)C(=O)N1Cc2ccccc2C[C@H]1C(=O)N[C@@H](CO)C(=O)O [YW-107, (D-Tyr)-Phe-Leu-Pro-(D-Ser)-(NMe-Gln)-Phe-(D-Ala)-Tic-Ser-OH] (H-[dY]FLP[dS][NMeQ]F[dA][Tic]S-OH) | > 50000 | 
5 | CN[C@H](Cc1ccc(O)cc1)C(=O)N[C@@H](Cc1ccccc1)C(=O)N(C)[C@@H](CC(C)C)C(=O)N1CSC[C@H]1C(=O)N[C@H](CO)C(=O)N[C@@H](CCC(N)=O)C(=O)N[C@@H](Cc1ccc2ccccc2c1)C(=O)N[C@H](C)C(=O)N1Cc2ccccc2C[C@H]1C(=O)N[C@@H](CO)C(=O)O [YW-148, (D-NMe-Tyr)-Phe-(NMe-Leu)-Thz-(D-Ser)-Gln-2Nal-(D-Ala)-Tic-Ser-OH] (H-[dNMeY]F[NMeL][Thz][dS]Q[2Nal][dA][Tic]S-OH) | 0.5 | 
6 | CC(C)C[C@H](NC(=O)[C@H](Cc1ccccc1)NC(=O)[C@@H](Cc1ccc(O)cc1)NC(=S)NCCc1ccccc1)C(=O)N1CCC[C@H]1C(=O)N[C@H](CO)C(=O)N[C@@H](CCC(N)=O)C(=O)N[C@@H](Cc1ccccc1)C(=O)N[C@H](C)C(=O)N1Cc2ccccc2C[C@H]1C(=O)N[C@@H](CO)C(=O)O [YW-73, Phenethylcarbamothioyl-(D-Tyr)-Phe-Leu-Pro-(D-Ser)-Gln-Phe-(D-Ala)-Tic-Ser-OH] (X7-FLP[dS]QF[dA][Tic]S-OH) | 28 | 
7 | CN[C@H](Cc1ccc(O)cc1)C(=O)N[C@@H](Cc1ccccc1)C(=O)N(C)[C@@H](CC(C)C)C(=O)N1CCC[C@H]1C(=O)N[C@H](CO)C(=O)N[C@@H](CCC(N)=O)C(=O)N[C@@H](Cc1ccc2ccccc2c1)C(=O)N[C@H](C)C(=O)N1Cc2ccccc2C[C@H]1C(=O)N[C@@H](CO)C(=O)O [YW-167, (D-NMe-Tyr)-Phe-(NMe-Leu)-Pro-(D-Ser)-Gln-2Nal-(D-Ala)-Tic-Ser-OH] (H-[dNMeY]F[NMeL]P[dS]Q[2Nal][dA][Tic]S-OH) | 0.8 | 
8 | CC(C)C[C@@H](C(=O)N1CCC[C@H]1C(=O)N[C@H](CO)C(=O)N[C@@H](CCC(N)=O)C(=O)N[C@@H](Cc1ccccc1)C(=O)N[C@H](C)C(=O)N1Cc2ccccc2C[C@@H]1C(=O)N(C)[C@@H](CO)C(=O)O)N(C)C(=O)[C@H](Cc1ccccc1)NC(=O)[C@H](N)Cc1ccc(O)cc1 [YW-182, (D-Tyr)-Phe-(NMe-Leu)-Pro-(D-Ser)-Gln-Phe-(D-Ala)-(D-Tic)-(NMe-Ser)] (H-[dY]F[NMeL]P[dS]QF[dA][dTic][NMeS]-OH) | 41 | 
9 | CCCN(C(=O)[C@H](Cc1ccccc1)NC(=O)[C@@H](Cc1ccc(O)cc1)NC(=O)CCc1ccccc1)[C@@H](CC(C)C)C(=O)N1CCC[C@H]1C(=O)N[C@H](CO)C(=O)N[C@@H](CCC(N)=O)C(=O)N[C@@H](Cc1ccccc1)C(=O)N[C@H](C)C(=O)N1Cc2ccccc2C[C@H]1C(=O)N[C@@H](CO)C(=O)O [YW-186, 3-Phenylpropanoyl-(D-Tyr)-Phe-(NPr-Leu)-Pro-(D-Ser)-Gln-Phe-(D-Ala)-Tic-Ser] (Hydrocinnamoyl-[dY]F[X6]P[dS]QF[dA][Tic]S-OH) | 11 | 
10 | CC(C)C[C@H](NC(=O)[C@H](Cc1ccccc1)NC(=O)[C@H](N)Cc1ccc(O)cc1)C(=O)N1CCC[C@H]1C(=O)N[C@H](CO)C(=O)N(CCC(N)=O)CC(=O)N[C@@H](Cc1ccccc1)C(=O)N[C@H](C)C(=O)N1Cc2ccccc2C[C@H]1C(=O)N[C@@H](CO)C(=O)O [YW-108, (D-Tyr)-Phe-Leu-Pro-(D-Ser)-NGln-Phe-(D-Ala)-Tic-Ser-OH] (H-[dY]FLP[dS][Gly(Nα-CH2CH2CONH2)]F[dA][Tic]S-OH) | > 50000 | 
11 | CC(C)C[C@H](NC(=O)[C@H](Cc1ccccc1)NC(=O)[C@@H](Cc1ccc(O)cc1)NC(=O)c1c(O)cccc1O)C(=O)N1CCC[C@H]1C(=O)N[C@H](CO)C(=O)N[C@@H](CCC(N)=O)C(=O)N[C@@H](Cc1ccccc1)C(=O)N[C@H](C)C(=O)N1Cc2ccccc2C[C@H]1C(=O)N[C@@H](CO)C(=O)O [YW-128, 2,6-dihydroxybenzoyl-(D-Tyr)-Phe-Leu-Pro-(D-Ser)-Gln-Phe-(D-Ala)-Tic-Ser-OH] (X8-[dY]FLP[dS]QF[dA][Tic]S-OH) | 20 | 
12 | CC(C)C[C@H](NC(=O)[C@H](Cc1ccccc1)NC(=O)[C@@H](Cc1ccc(O)cc1)NCCCc1ccccc1)C(=O)N1CCC[C@H]1C(=O)N[C@H](CO)C(=O)N[C@@H](CCC(N)=O)C(=O)N[C@@H](Cc1ccccc1)C(=O)N[C@H](C)C(=O)N1Cc2ccccc2C[C@H]1C(=O)N[C@@H](CO)C(=O)O [YW-74, 3-Phenylpropyl-(D-Tyr)-Phe-Leu-Pro-(D-Ser)-Gln-Phe-(D-Ala)-Tic-Ser-OH] (H-[X11]FLP[dS]QF[dA][Tic]S-OH) | 6.2 | 
13 | CC(C)C[C@H](NC(=O)[C@H](Cc1ccccc1)NC(=O)[C@H](N)Cc1ccc(O)cc1)C(=O)N1CCC[C@H]1C(=O)N[C@H](CO)C(=O)N[C@@H](CCC(N)=O)C(=O)N[C@@H](Cc1ccc(C(=O)c2ccccc2)cc1)C(=O)N[C@H](C)C(=O)N1Cc2ccccc2C[C@H]1C(=O)N[C@@H](CO)C(=O)O [YW-119, (D-Tyr)-Phe-Leu-Pro-(D-Ser)-Gln-Bpa-(D-Ala)-Tic-Ser-OH] (H-[dY]FLP[dS]Q[Bpa][dA][Tic]S-OH) | 9.9 | 
14 | CC(C)C[C@H](NC(=O)[C@H](Cc1ccccc1)NC(=O)[C@@H](Cc1ccc(O)cc1)NC(=O)c1cc(O)cc(O)c1)C(=O)N1CCC[C@H]1C(=O)N[C@H](CO)C(=O)N[C@@H](CCC(N)=O)C(=O)N[C@@H](Cc1ccccc1)C(=O)N[C@H](C)C(=O)N1Cc2ccccc2C[C@H]1C(=O)N[C@@H](CO)C(=O)O [YW-79, 3,5-dihydroxybenzoyl-(D-Tyr)-Phe-Leu-Pro-(D-Ser)-Gln-Phe-(D-Ala)-Tic-Ser-OH] ({Benzoyl(3,5-(OH)2)}-[dY]FLP[dS]QF[dA][Tic]S-OH) | 4.7 | 
15 | CC(C)C[C@H](NC(=O)[C@H](Cc1ccccc1)NC(=O)[C@@H](Cc1ccc(O)cc1)NC(=O)C(c1ccccc1)c1ccccc1)C(=O)N1CCC[C@H]1C(=O)N[C@H](CO)C(=O)N[C@@H](CCC(N)=O)C(=O)N[C@@H](Cc1ccccc1)C(=O)N[C@H](C)C(=O)N1Cc2ccccc2C[C@H]1C(=O)N[C@@H](CO)C(=O)O [YW-78, diphenylacetyl-(D-Tyr)-Phe-Leu-Pro-(D-Ser)-Gln-Phe-(D-Ala)-Tic-Ser-OH] (Diphenylacetyl-[dY]FLP[dS]QF[dA][Tic]S-OH) |  | 26
16 | CC(C)C[C@@H](C(=O)N1CCC[C@H]1C(=O)N[C@H](CO)C(=O)N[C@@H](CCC(N)=O)C(=O)N[C@@H](Cc1ccccc1)C(=O)N[C@H](C)C(=O)N1CCc2ccccc2[C@@H]1C(=O)N[C@@H](CO)C(=O)O)N(C)C(=O)[C@H](Cc1ccccc1)NC(=O)[C@H](N)Cc1ccc(O)cc1 [YW-153, (D-Tyr)-Phe-(NMe-Leu)-Pro-(D-Ser)-Gln-Phe-(D-Ala)-D-Ti1c-Ser-OH] (H-[dY]F[NMeL]P[dS]QF[dA][X5]S-OH) | 8.5 | 
17 | CC(C)C[C@H](NC(=O)[C@H](Cc1ccccc1)NC(=O)[C@H](N)Cc1ccc(O)cc1)C(=O)N1CC[C@H]1C(=O)N[C@H](CO)C(=O)N[C@@H](CCC(N)=O)C(=O)N[C@@H](Cc1ccccc1)C(=O)N[C@H](C)C(=O)N1Cc2ccccc2C[C@H]1C(=O)N[C@@H](CO)C(=O)O [YW-115, (D-Tyr)-Phe-Leu-Aze-(D-Ser)-Gln-Phe-(D-Ala)-Tic-Ser-OH] (H-[dY]FL[Aze][dS]QF[dA][Tic]S-OH) | 190 | 
18 | CC(C)C[C@H](NC(=O)[C@H](Cc1ccccc1)NC(=O)[C@@H](Cc1ccc(O)cc1)NC(=O)c1ccc(O)c(O)c1O)C(=O)N1CCC[C@H]1C(=O)N[C@H](CO)C(=O)N[C@@H](CCC(N)=O)C(=O)N[C@@H](Cc1ccccc1)C(=O)N[C@H](C)C(=O)N1Cc2ccccc2C[C@H]1C(=O)N[C@@H](CO)C(=O)O [YW-129, 2,3,4-Trihydroxybenzoyl-(D-Tyr)-Phe-Leu-Pro-(D-Ser)-Gln-Phe-(D-Ala)-Tic-Ser-OH] (X9-[dY]FLP[dS]QF[dA][Tic]S-OH) | 9.1 | 
